Experimental data published in PMC8979340 (RSC Advances, 2022).
Each block holds one compound with its values, some of them ahead of it.

Experiments:
[1] = target: T1, human TGR5 (Homo sapiens, UniProt Q8TDU6); test: cAMP HTRF TGR5 agonism assay in HEK293T cells expressing human TGR5; assay type: cell-based; settings: for TGR5 agonistic activity (in words): hTGR5, cAMP HTRF
T1 sequence (Q8TDU6 1-330): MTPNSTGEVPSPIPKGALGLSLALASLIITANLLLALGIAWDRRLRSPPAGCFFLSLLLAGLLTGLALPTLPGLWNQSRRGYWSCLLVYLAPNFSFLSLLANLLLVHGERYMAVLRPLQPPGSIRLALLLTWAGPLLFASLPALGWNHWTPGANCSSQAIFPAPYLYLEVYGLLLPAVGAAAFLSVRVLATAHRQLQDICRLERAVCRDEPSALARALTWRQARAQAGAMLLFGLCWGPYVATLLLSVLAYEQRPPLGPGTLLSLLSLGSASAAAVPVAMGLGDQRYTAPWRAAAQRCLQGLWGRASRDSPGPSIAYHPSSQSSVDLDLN

[2] = system: NCI-H716 cells; test: In vitro GLP-1 secretion assay; assay type: cell-based, human; settings: 4 μM, 2 h
[3] = system: C57 BL/6 mice; test: In vivo GLP-1 secretion; settings: 50 mg kg−1 oral, blood 4 h later
[4] = system: A549 cells; test: CCK8 cytotoxicity assay in A549 cells; assay type: cell-based; settings: Homo sapiens, A549, read-out: IC50 A549
[5] = system: HeLa cells; test: CCK8 cytotoxicity assay in HeLa cells; assay type: cell-based; settings: Homo sapiens, read-out: IC50 HeLa
[6] = target: T2, mouse TGR5 (Mus musculus, UniProt Q80SS6); test: cAMP HTRF TGR5 agonism assay in HEK293T cells expressing mouse TGR5; assay type: cell-based
T2 sequence (Q80SS6 1-329): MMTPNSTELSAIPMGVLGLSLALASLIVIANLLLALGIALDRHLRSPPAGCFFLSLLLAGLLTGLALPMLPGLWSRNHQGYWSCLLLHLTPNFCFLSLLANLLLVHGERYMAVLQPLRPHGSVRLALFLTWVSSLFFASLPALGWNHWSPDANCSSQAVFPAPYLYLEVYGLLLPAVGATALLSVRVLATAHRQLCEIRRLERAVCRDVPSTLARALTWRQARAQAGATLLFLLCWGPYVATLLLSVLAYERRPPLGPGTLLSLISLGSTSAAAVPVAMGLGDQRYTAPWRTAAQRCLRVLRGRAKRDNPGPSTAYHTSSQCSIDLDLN

[7] = In vitro human plasma stability assay; assay type: in vitro ADME

- EC50 [1]: 1500 nM
SMILES: O=C(c1nccnc1Oc1ccc(Cl)cc1)N1CCN(C2CC2)c2ccccc21 [18d, (3-(4-Chlorophenoxy)pyrazin-2-yl)(4-cyclopropyl-3,4-dihydroquinoxalin-1(2H)-yl)methanone]

- EC50 [1]: 83.2 nM
SMILES: Cc1ccc(Oc2nccnc2C(=O)N2CCN(C3CC3)c3ccccc32)cc1 [18i, (4-Cyclopropyl-3,4-dihydroquinoxalin-1(2H)-yl)(3-(p-tolyloxy)pyrazin-2-yl)methanone]

- EC50 [1]: 895 nM
SMILES: O=C(c1nccnc1Oc1ccc(-c2ccccc2)cc1)N1CCN(C2CC2)c2ccccc21 [18l, (3-([1,1′-Biphenyl]-4-yloxy)pyrazin-2-yl)(4-cyclopropyl-3,4-dihydroquinoxalin-1(2H)-yl)methanone]

- EC50 [1]: > 30000 nM
- TGR5 agonistic activity (in words) [1]: no TGR5 agonistic activities
SMILES: O=C(C1Cc2ccccc2CN1Cc1ccc(Cl)cc1)N1CCN(C2CC2)c2ccccc21 (stereo not shown) [18a, (2-(4-Chlorobenzyl)-1,2,3,4-tetrahydroisoquinolin-3-yl)(4-cyclopropyl-3,4-dihydroquinoxalin-1(2H)-yl)methanone]

- EC50 [1]: 442 nM
SMILES: O=C(c1nccnc1Oc1ccc(F)cc1)N1CCN(C2CC2)c2ccccc21 [18e, (4-Cyclopropyl-3,4-dihydroquinoxalin-1(2H)-yl)(3-(4-fluorophenoxy)pyrazin-2-yl)methanone]

- EC50 [1]: > 30000 nM
- TGR5 agonistic activity (in words) [1]: no TGR5 agonistic activities
SMILES: O=C(c1cc2sccc2n1Cc1ccc(Cl)cc1)N1CCN(C2CC2)c2ccccc21 [18c, (4-(4-Chlorobenzyl)-4H-thieno[3,2-b]pyrrol-5-yl)(4-cyclopropyl-3,4-dihydroquinoxalin-1(2H)-yl)methanone]

- EC50 [1]: 0.58 nM
- EC50 [6]: 267 nM
- half-life [7]: > 289 min
- remaining at 0 h [7]: 100%
- remaining at 0.5 h [7]: 104%
- remaining at 1 h [7]: 102%
- remaining at 2 h [7]: 85.4%
SMILES: O=C(c1nccnc1Oc1cc(Cl)ccc1Cl)N1CCN(C2CC2)c2ccccc21 [18k, (4-Cyclopropyl-3,4-dihydroquinoxalin-1(2H)-yl)(3-(2,5-dichlorophenoxy)pyrazin-2-yl)methanone]
- GLP-1 secretion compared to control [2]: increase the secretion of GLP-1
- GLP-1 secretion compared to control [3]: increase GLP-1 secretion
- IC50 [4]: > 50 µM
- IC50 [5]: > 50 µM

- EC50 [1]: 1.44 nM
- EC50 [6]: 120 nM
SMILES: O=C(c1nccnc1Oc1ccccc1Cl)N1CCN(C2CC2)c2ccccc21 [18g, (3-(2-Chlorophenoxy)pyrazin-2-yl)(4-cyclopropyl-3,4-dihydroquinoxalin-1(2H)-yl)methanone]
- IC50 [4]: > 50 µM
- IC50 [5]: > 50 µM

- EC50 [1]: > 10000 nM
SMILES: CN(C(=O)c1nccnc1Oc1cc(Cl)ccc1Cl)c1ccc(F)cc1 [18r, 3-(2,5-Dichlorophenoxy)-N-(4-fluorophenyl)-N-methylpyrazine-2-carboxamide]

- EC50 [1]: 196 nM
SMILES: COc1ccc(Oc2nccnc2C(=O)N2CCN(C3CC3)c3ccccc32)cc1 [18h, (4-Cyclopropyl-3,4-dihydroquinoxalin-1(2H)-yl)(3-(4-methoxyphenoxy)pyrazin-2-yl)methanone]

- EC50 [1]: > 10000 nM
SMILES: O=C(c1nccnc1Oc1cc(Cl)ccc1Cl)N1CCOc2ccccc21 [18u, (3-(2,5-Dichlorophenoxy)pyrazin-2-yl)(2,3-dihydro-4H-benzo[b][1,4]oxazin-4-yl)methanone]

- EC50 [1]: 9.89 nM
- EC50 [6]: 538 nM
SMILES: O=C(c1nccnc1Oc1ccc(Cl)cc1Cl)N1CCN(C2CC2)c2ccccc21 [18j, (4-Cyclopropyl-3,4-dihydroquinoxalin-1(2H)-yl)(3-(2,4-dichlorophenoxy)pyrazin-2-yl)methanone]
- IC50 [4]: > 50 µM
- IC50 [5]: > 50 µM

- EC50 [1]: > 30000 nM
- TGR5 agonistic activity (in words) [1]: no TGR5 agonistic activities
SMILES: O=C(c1cc2ccccc2n1Cc1ccc(Cl)cc1)N1CCN(C2CC2)c2ccccc21 [18b, (1-(4-Chlorobenzyl)-1H-indol-2-yl)(4-cyclopropyl-3,4-dihydroquinoxalin-1(2H)-yl)methanone]

- EC50 [1]: 36.7 nM
SMILES: O=C(c1nccnc1Oc1ccccc1F)N1CCN(C2CC2)c2ccccc21 [18f, (4-Cyclopropyl-3,4-dihydroquinoxalin-1(2H)-yl)(3-(2-fluorophenoxy)pyrazin-2-yl)methanone]

- EC50 [1]: > 10000 nM
SMILES: O=C(c1nccnc1Oc1cc(Cl)ccc1Cl)N1CCN(c2ccccc2F)CC1 [18o, (3-(2,5-Dichlorophenoxy)pyrazin-2-yl)(4-(2-fluorophenyl)piperazin-1-yl)methanone]
